Consider one substance from patent US10717981B2, “Therapeutic compositions and methods of making and using the same” (Advanced ReGen Medical Technologies, LLC, priority 2018, dated 2020).

In one data set the test system is K562. The data set is described as follows: Cell-mediated cytotoxicity assay, aged effector cells. The settings on record: miRNA formulations in aged cells, vs control RNA. It counts as cell-based. As for the experimental part:
Cell cytotoxicity was determined with the CFSE/7-AAD Cell Cytotoxicity Kit (Cayman Chemical) according to manufacturer's specified instructions. Briefly, the human chronic myelogenous leukemia cell line, K562, (ATCC # CCL-243) was used as target cells. 107 K562 cells were labeled for 15 min with CFSE dye, washed twice and diluted 100-fold for 30 min incubation at 37° C. Cells from 7-day isochronic or heterochronic cultures were used as effectors. Effector and target cells were added to 6-well plates at the following effector-to-target (E:T) ratios: 0:1, 6.25:1, 12.5:1 and 25:1, and cell mixtures incubated for 4 h at 37° C. Cells were harvested and counter-stained with 7-AAD. 50,000 events were acquired on the FACSCalibur flow cytometer, and data analyzed using BD CellQuest Pro™ software. Target cells incubated alone with 7-AAD served as control to calculate spontaneous lysis, while effector cells alone with 7-AAD served as control to detect dead effector cells. Percent lysis was calculated according the following formula: [(cells positive for both CFSE and 7-AAD/total CFSE-labeled cells)*100−spontaneous % lysis]. […]

Another data set has as its system aged cells. The data set is described as follows: Clonogenic assay (CFU-GM) of aged cells after miRNA mimic, siRNA or exosome treatment. It is filed as cell-based, human. Conditions: overexpression of candidate miRNAs in aged isochronic cultures, vs negative control RNA. An excerpt:
Aged TNCs (10×10^6 cells per sample) were nucleofected with microRNA mimics (Qiagen), miRNA inhibitors (Qiagen), negative control siRNA (Qiagen), negative control miRNA inhibitor (Qiagen) or downstream target candidate siRNAs (Origene) using the Amaxa P3 Primary Cell 4D-Nucleofector X Kit (Lonza) on a 4D Nucleofector device (Lonza), according to manufacturer's specific protocol. Briefly, for nucleofection of CD34+ cells used in clonogenic assays, cells were nucleofected with 60 nmol total miRNA mimics, miRNA inhibitors or siRNA using the “human CD34+ cell” program. For nucleofection of T cells used in T cell activation and cell-mediated cytotoxicity assays, cells were nucleofected with 240 nmol total miRNA mimics, miRNA inhibitors or siRNA using the “human unstimulated T cell, high functionality” program.

In a further data set the test system is huNSG mice. The protocol: T cell activation was determined using the T Cell Activation/Expansion Kit (Miltenyi). Briefly, anti-biotin MACSiBead Particles were loaded with CD2, CD3, and CD28 antibodies. Cells from 7-day isochronic or heterochronic cultures, or MNCs isolated from huNSG mouse blood by Ficoll-Hypaque density gradient, were incubated with loaded anti-biotin MACSiBead Particles at a 1:2 bead to cell ratio for 72 h to activate T cells. Addition of unloaded MACSiBead Particles served as negative control. After 72 h, cells were fluorescently labeled using CD45-FITC, CD4-PE, CD25-PerCP-Cy5.5 and CD8-APC to determine T cell activation status by flow cytometry.
5-week old, female NOD/scid IL2Rγnull (NSG) mice were purchased from Jackson Labs and housed in an AALAC-accredited facility at Rutgers, N.J. Medical School (Newark, N.J.). The protocol was approved by the Institutional Animal Care and Use Committee, Rutgers School of Biomedical Health Sciences (Newark, N.J.). Mice were acclimated in the Rutgers barrier animal facility for 1 week prior to experimental use. 6-week old mice were subjected to 150 cGy whole body gamma irradiation using a Mark-I cesium irradiator unit. 5 hours post-irradiation, mice were injected i.v. with 5×10^5 human CD34+ cells isolated from aged or young study donor Leukopaks. Engraftment proceeded over 15-19 weeks, with peripheral blood chimerism monitored at 9 and 13 weeks post-transplant. % Chimerism was detected by co-labeling blood with anti-human CD45-APC (HI30) and anti-mouse CD45-FITC (30-F11) for monitoring by flow cytometry. Humanized NSG (huNSG) enrolled in the treatment arm of the transwell-based animal study were given a 2nd i.v. injection of 5×10^5 autologous aged cells from 7-day isochronic (non-restored) or heterochronic (restored) cultures that were CD3-depleted (Miltenyi) prior to transplant, or saline control. The miRNA-based animal study was performed as above, except that the treatment arm utilized autologous aged cells transfected with 60 nmol total of either miR-619 alone, miR-combo (miR-619, -1303, 4497) or control RNA. Transfections utilized the HiPerFect reagent (Qiagen), and cells were transfected for a total of 7 days prior to CD3 depletion and i.v. injection as above. Mice were sacrificed at 14-15 weeks post-transplant, and blood, BM and speen harvested for biochemical, phenotypic and functional analyses. Major organs were also harvested for histological assessment. Tissue embedding, processing and staining were performed by the Digital Imaging and Histology Core of Rutgers-New Jersey Medical School Cancer Center (Newark, N.J.). Histologic findings were confirmed on H&E slides by a board-certified veterinary pathologist.
Detection of senescence associated secretory factors (SASFs) in plasma of huNSG mice was performed using Custom C-Series Human Antibody Arrays (Ray Biotech). Arrays were labeled with antibodies to 68 different factors linked to cellular senescence. Briefly, blood from huNSG mice was pelleted for 10 min at 300 g and plasma supernatant collected in siliconized microfuge tubes for SASF determination. […] Background levels were calculated by incubating the arrays with plasma from non-humanized NSG mice and then subtracting the obtained values from each huNSG sample.
For the T Cell Cytokine Array (Ray Biotech), conditioned media was collected from cells isolated from huNSG peripheral blood that were stimulated as per the T cell activation assay (see above) after 72 h and stored in protein lo-bind tubes. […] For both the custom SASF and T cell cytokine arrays, densitometry was performed using the UN-SCAN-IT densitometry software (Silk Scientific). Hierarchical clustering and heat map generation were perfomed with Heatmapper software.
BM from huNSG were flushed with a 26-gauge needle and collected for subsequent purification of engrafted human cells with the Mouse Cell Depletion Kit (Miltenyi).

In the case of “miR-619: miRNA (miR-619-5p), GCUGGGAUUACAGGCAUGAGCC (chemistry not given here; listed as Homo sapiens)”, the “target lysis (cell-mediated cytotoxicity)” value in the data set on K562 is listed as “significant increases”. Besides, the aged colony formation entry with aged cells is “significant effect”. Besides, the “SASFs decreased (68 factors linked to the SASP)” value with huNSG mice (blood plasma, 1.5-fold cutoff, vs control) came out at 51.4%. The “total SASF expression” value with huNSG mice (blood plasma, vs control) is on record as “significant decreases”. Also, the mean overall survival in the data set on huNSG mice (mice receiving aged cells treated with miRNA, 15 weeks after 2nd transplant) was 89%. Further, the clonogenicity entry in the data set on huNSG mice (normalized to control, compared to heterochronic treatment) is “more robust”. In the data set with huNSG mice (vs RNA control), the “huCD3+ cells in blood” value is recorded as “increased” and the “huCD4+ cells in blood” value is listed as “significantly increased”. For the same substance, in the data set with huNSG mice (vs control), the BM clonogenicity result is “significantly increased”, the “huCD4+/CD8+ ratio in blood” value is listed as “increased” and the “huCD8+ cells in blood” value was “decreased”. For the same substance, in the data set on huNSG mice (vs control RNA), the “human chimerism in BM or blood” value is reported as “No significant difference”.
